This passage reports IC50 results from ChEMBL document CHEMBL1126911, “Synthesis and binding properties of 2-amino-5-phosphono-3-pentenoic acid photoaffinity ligands as probes for the glutamate recognition site of the NMDA receptor” (J Med Chem, 1993).

Experiment [1] concerns the target Glutamate NMDA receptor. Briefly: Tested for in vitro binding affinity against NMDA receptor by using [3H]-CGP- 39653 as radioligand in rat forebrain membranes. The experiment is classed as cell membranes.
Experiment [2] has as its target Glutamate NMDA receptor. The experiment in a line: Tested for in vitro binding affinity against NMDA receptor by using [3H]-CGP- 39653 as radioligand in rat forebrain membranes. In kind it is cell membranes, Membrane.

By IC50 is commonly meant the concentration at which inhibition is half-maximal. The low end stands for greater potency, the high end for weaker potency. At Glutamate NMDA receptor [1], `[N-]=[N+]=Nc1ccc(C(=O)NCCCCCC/C(=C\C(N)C(=O)O)CP(=O)(O)O)cc1` (stereo not given) displayed a half-maximal inhibitory concentration (IC50) of 38 nM. The molecule `NCCCCCC/C(=C\C(N)C(=O)O)CP(=O)(O)O` (stereo not given) returned an IC50 on Glutamate NMDA receptor [1] of 42 nM. With `[N-]=[N+]=Nc1ccc(C(=O)NCCCCCC/C(=C\C(N)C(=O)O)CP(=O)(O)O)c(O)c1` (stereo not given), the half-inhibitory concentration (IC50) at Glutamate NMDA receptor [1] was found to be 36 nM.

On Glutamate NMDA receptor [1], `[N-]=[N+]=Nc1ccc(C(=O)NCCCCCC/C(=C\C(N)C(=O)O)CP(=O)(O)O)c(O)c1I` (stereo not given) registered a half-maximal inhibitory concentration (IC50) of 34 nM. With `NC(/C=C(\CCCCCCNC(=O)c1ccccc1)CP(=O)(O)O)C(=O)O` (stereo not given), the 50% inhibitory concentration (IC50) on Glutamate NMDA receptor [2] was 106 nM.
